Tests used:
CHO/C5-PCFT cells = assay: Growth inhibition, SRB assay, CHO/C5-PCFT (PCFT-transfected); type: cell-based, Chinese hamster
Description: (§1) Briefly, cells were seeded in triplicate in 96-well plates at their pre-established optimal density (CHO cells: 2,500 cells/100 μL; WiDr and HT29: 3,500 cells/100 μL; WiDr-LF/LV, LS174T: 5,000 cells/100 μL; CaCo2, CaCo2-LF/LV, H292, H28 and MSTO-211H: 6,000 cells/100 μL; H460, SW948 and SW1398: 7,000 cells/100 μL) and were allowed to attach for ∼ 24 h at 37°C in 5% CO2 and 100% humidified incubator. Thereafter, 100 μL of drug dilution without LV, or with 5 μM l-LV/5 μM d-LV/10 μM dL-LV (or any LV alone) were added. Cells were allowed to grow for 72 h at 37°C in 5% CO2 and 100% humidity. The t = 0 h control plate consisted of cells plated on the same day as the other cells, but after 24 h at 37°C in 5% CO2 and 100% humidity, only 100 μL medium was added and the cells were fixed immediately with 50% trichloroacetic acid (TCA) in milliQ water (25 μL per well) and put at 4°C for at least 1 h. Plates were washed five times with water and dried. Cells were stained with the SRB protein dye (0.4% (w/v) in 1% acetic acid. Excess dye was washed away four times with 1% acetic acid and plates were dried again. 200 μL of Tris (10 mM Tris (hydroxymethyl)-aminomethane in MQ) was added and optical density (OD) was read at 492 nm after mixing 2–3 min on a plate shaker.

CHO/C5-MOCK cells = assay: Growth inhibition, SRB assay, CHO/C5-MOCK (empty vector); type: cell-based, Chinese hamster
Description: as §1

AA8 cells = assay: Growth inhibition, SRB assay, AA8 (parental CHO); type: cell-based, Chinese hamster; conditions: for IC50: AA8 parental CHO
Description: as §1

[1] = biological target: T1, reduced folate carrier (RFC/SLC19A1) (Homo sapiens, UniProt P41440); assay: Inhibition of RFC-mediated [3H]-l-LV influx in CEM-7A cells; type: cell-based
T1 construct: CEM-7A cells, which display 30-fold RFC overexpression relative to wild-type CCRF-CEM cells; endogenous in cells; host or cells: CEM-7A (CCRF-CEM variant, RFC+++ 30-fold)
T1 sequence (P41440 1-591): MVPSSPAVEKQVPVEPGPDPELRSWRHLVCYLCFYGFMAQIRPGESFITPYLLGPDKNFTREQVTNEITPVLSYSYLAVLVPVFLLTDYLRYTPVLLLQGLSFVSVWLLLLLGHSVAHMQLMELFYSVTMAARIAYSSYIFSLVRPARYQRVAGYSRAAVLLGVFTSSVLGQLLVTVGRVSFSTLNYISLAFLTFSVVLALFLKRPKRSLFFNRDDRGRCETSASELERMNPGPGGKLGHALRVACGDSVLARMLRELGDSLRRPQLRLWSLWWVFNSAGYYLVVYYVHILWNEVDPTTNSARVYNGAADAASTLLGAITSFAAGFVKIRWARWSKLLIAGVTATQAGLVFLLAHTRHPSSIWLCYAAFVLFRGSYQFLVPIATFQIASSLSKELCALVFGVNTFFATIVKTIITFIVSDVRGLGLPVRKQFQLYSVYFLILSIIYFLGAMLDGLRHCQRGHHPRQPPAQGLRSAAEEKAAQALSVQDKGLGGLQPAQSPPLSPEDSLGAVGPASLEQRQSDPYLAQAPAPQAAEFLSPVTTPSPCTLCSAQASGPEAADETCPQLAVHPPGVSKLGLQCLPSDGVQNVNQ
Description: (§2) In order to determine whether the LV isomers were substrates for either folate receptor α (FRα), RFC and/or PCFT, we used model systems with established overexpression of these receptors or transporters ([Westerhof et al., 1995a]; [Westerhof et al., 1995b]; [Lasry et al., 2008]; [Van der Heijden et al., 2009]).
CEM-7A cells (2 × 10^6) were suspended in 1 mL HBSS and the assay was initiated by addition of 25 μL 200 μM [^3H]-l-LV; 5,000 pmol (i.e., 5 μM final concentration). Incubations proceeded for 2 min at 37°C in the absence and presence of increasing amounts of unlabelled LV/antifolate drug. Blanks consisted of a separate incubation at 4°C or incubation with 100-fold molar excess of unlabelled l-LV. [^3H]-l-LV influx was terminated by adding 9 mL ice-cold HBSS, centrifugation and an additional wash of the cells with 10 mL ice-cold buffer. Cell pellets were then assessed for radioactivity. Relative affinities for RFC are expressed as the concentration of unlabelled drug necessary to inhibit [^3H]-l-LV uptake by 50%.

CHO/C5-hRFC cells = assay: Growth inhibition, SRB assay, CHO/C5-hRFC (human RFC transfected); type: cell-based, Chinese hamster; conditions: for IC50: CHO/C5-hRFC
Description: as §1

CHO/C5 cells = assay: Growth inhibition, SRB assay, CHO/C5 (RFC-deficient); type: cell-based, Chinese hamster
Description: as §1

[2] = biological target: T2, thymidylate synthase (TS) (Homo sapiens, UniProt P04818); assay: TS in situ inhibition assay (TSIA) in colon cancer cells; type: cell-based; conditions: WiDr, 5 µM d-LV
T2 construct: The principle of this assay is the measurement of TS enzymatic activity in intact cells; endogenous in cells; host or cells: colon cancer cell lines (WiDr, WiDr-LF, SW1398, LS174T and others)
T2 sequence (P04818 2-313 limits assumed): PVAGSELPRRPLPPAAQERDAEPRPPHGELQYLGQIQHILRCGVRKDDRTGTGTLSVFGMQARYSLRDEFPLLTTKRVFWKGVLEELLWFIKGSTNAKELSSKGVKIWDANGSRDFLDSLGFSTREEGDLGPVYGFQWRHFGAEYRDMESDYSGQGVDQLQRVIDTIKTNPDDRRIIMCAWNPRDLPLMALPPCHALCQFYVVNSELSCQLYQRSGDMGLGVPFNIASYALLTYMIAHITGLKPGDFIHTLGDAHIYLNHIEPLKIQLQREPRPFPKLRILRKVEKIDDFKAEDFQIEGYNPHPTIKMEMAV
Text: The principle of this assay is the measurement of TS enzymatic activity in intact cells. Intact cells will readily internalize radioactively labelled [5-^3H]-deoxycytidine, which will be rapidly converted by deoxycytidine kinase (dCK) to [5-^3H]-dCMP and subsequently deaminated to [5-^3H]-dUMP, which will then serve as a substrate in the TS catalysed reaction to dTMP and ^3H2O; the quantity of ^3H2O formed over time is a measure of intracellular TS activity. […] This is because dCK has a higher, cell cycle independent activity than thymidine kinase 1, which is a cell cycle dependent enzyme. For this purpose, cancer cells were cultured in six wells plates at 2.5 × 10^5 cells/2 mL/well for 24 h. Thereafter, cells were exposed to drugs with or without the LV formulations at the indicated concentrations for 4 h. 2 h before the end of the incubation period [5-^3H]-2′-deoxycytidine (final concentration 1 µM) was added to the cells. […] In most cell lines we quantified dCK activity and dCK mRNA levels.

human PCFT = biological target: T3, human PCFT (Homo sapiens, UniProt Q96NT5); assay: Inhibition of PCFT-mediated [3H]-l-LV influx in CHO/C5-PCFT cells; type: cell-based, Chinese hamster (CHO cells); conditions: CHO/C5/PCFT cells, 2.5 µM [3H]-l-LV, pH 5.5, 3 min; read-out: Concentration for 50% inhibition of PCFT-mediated [3H]-l-LV influx
T3 construct: expressed in transfected cells; host or cells: CHO/C5 (RFC-deficient Chinese hamster ovary cells, no PCFT)
T3 sequence (Q96NT5 1-459): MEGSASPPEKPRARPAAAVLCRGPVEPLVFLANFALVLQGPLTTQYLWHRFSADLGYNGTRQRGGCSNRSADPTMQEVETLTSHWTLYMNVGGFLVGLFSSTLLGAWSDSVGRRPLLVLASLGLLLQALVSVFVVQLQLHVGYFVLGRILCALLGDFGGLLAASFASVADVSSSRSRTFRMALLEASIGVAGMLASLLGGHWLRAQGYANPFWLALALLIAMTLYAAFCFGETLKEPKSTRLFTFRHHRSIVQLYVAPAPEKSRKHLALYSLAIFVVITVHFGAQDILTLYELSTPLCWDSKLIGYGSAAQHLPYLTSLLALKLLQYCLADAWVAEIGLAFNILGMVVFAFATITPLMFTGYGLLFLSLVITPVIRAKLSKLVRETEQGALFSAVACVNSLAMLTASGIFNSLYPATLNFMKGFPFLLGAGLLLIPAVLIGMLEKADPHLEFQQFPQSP
Description: as §2
The competitive inhibition by 2.5 μM [^3H]-l-LV influx of PCFT was measured essentially as described for the RFC assay, except that the incubation time was 3 min, at pH 5.5 (the optimal pH for PCFT) and pH 7.4 with increasing amounts of unlabelled LV stereoisomers/antifolate drug. For PCFT too, relative affinities were expressed as the concentration of unlabelled drug necessary to inhibit 50% of [^3H]-l-LV influx.

WiDr LF/LV cells = assay: Growth inhibition, SRB assay, WiDr LF/LV; type: cell-based, human; conditions: WiDr-LF cells, 5 µM d-LV
Description: as §1

colon cancer cell lines = assay: Growth inhibition, SRB assay, panel of colon cancer cell lines; type: cell-based, human; conditions: all colon cancer cell lines
Description: as §1

folate receptor α (FRα) = biological target: T4, folate receptor α (FRα) (Homo sapiens, UniProt P15328); assay: Intact cell competitive binding assay, displacement of [3H]-folic acid from FRα in KB cells
T4 construct: endogenous in cells; host or cells: KB cells (FRα++)
T4 sequence (P15328 25-257): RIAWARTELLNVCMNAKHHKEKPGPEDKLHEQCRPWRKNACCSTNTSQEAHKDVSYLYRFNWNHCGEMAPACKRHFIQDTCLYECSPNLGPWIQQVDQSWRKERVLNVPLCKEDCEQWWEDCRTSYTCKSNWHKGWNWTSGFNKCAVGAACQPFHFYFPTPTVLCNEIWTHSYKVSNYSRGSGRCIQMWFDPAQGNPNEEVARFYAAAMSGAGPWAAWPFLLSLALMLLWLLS
Description: as §2
For FRα we used KB cells ([Westerhof et al., 1995b]). An intact cell binding assay for competitive binding was performed as described previously ([Westerhof et al., 1995a]). Briefly, cells were washed with Hanks balanced salt solution and 6 mM glucose (HBSS, pH 7.4), suspended in 1 mL of this solution (1*10^6 for KB cells) and incubated at 4°C for 15 min with 100 pmol [^3H]-folic acid [(^3H)-FA], in the presence and absence of unlabelled folic acid or LV stereoisomers. Cells were collected by centrifugation and analysed for radioactivity. Relative affinities for FRα were defined as the inverse ratio of compound to displace 50% of radioactive folic acid from FRα. The relative affinity of folic acid was set at 1.

[3] = Cricetulus griseus, antifolate alone

| 50% inhibition of [3H]-l-LV influx (RFC), fold higher concentration than l-LV [1] [fold] | Structure (SMILES) | IC50 (CHO/C5-PCFT cells; [3]) [µM] | IC50 (CHO/C5-PCFT cells; antifolate + 5 µM l-LV) [µM] | IC50 (CHO/C5-MOCK cells; [3]) [µM] | IC50 (CHO/C5-MOCK cells; antifolate + 5 µM l-LV) [µM] | Fold less active than PLX (AA8 cells; AA8 cells) [fold] | IC50 (AA8 cells; antifolate + 5 µM l-LV) [µM] | IC50 (AA8 cells; [3]) [µM] | IC50 (CHO/C5-hRFC cells; antifolate + 5 µM l-LV) [µM] | IC50 (CHO/C5-hRFC cells; [3]) [µM] | Protection by l-LV, increase of the IC50 value (CHO/C5-hRFC cells; hRFC-transfected cells, 5 µM l-LV) [fold] | IC50 (CHO/C5 cells; [3]) [µM] | IC50 (CHO/C5 cells; antifolate + 5 µM l-LV) [µM] | Protective effect on the TSIA against antifolates [2] | IC50 (human PCFT) [µM] | IC50 ([1]; 5 µM [3H]-l-LV, 2 min, 37°C, read-out: Concentration for 50% inhibition of [3H]-l-LV influx (RFC)) [µM] | Increase of IC50 value for 5FU by d-LV (WiDr LF/LV cells) [fold] | Modulation of 5FU sensitivity (colon cancer cell lines) | Molar excess over folic acid required for displacement of [3H]-FA binding from FRα (folate receptor α (FRα)) [fold] | Relative affinity for FRα (folate receptor α (FRα); 100 pmol [3H]-FA, inverse ratio of amount of drug displacing 50% of [3H]-FA, FA set to 1) |
| --- | --- | --- | --- | --- | --- | --- | --- | --- | --- | --- | --- | --- | --- | --- | --- | --- | --- | --- | --- | --- |
| 3 | CN(Cc1cnc2nc(N)nc(N)c2n1)c1ccc(C(=O)N[C@@H](CCC(=O)O)C(=O)O)cc1 [MTX, methotrexate] | 3.39 | 41 | 6.67 | > 100 | 10 | 6.6 | 0.038 | 1.45 | 0.02 | 72 | 8.93 | > 100 |  |  |  |  |  |  |  |
|  | Nc1nc2c(c(=O)[nH]1)N(C=O)[C@H](CNc1ccc(C(=O)N[C@@H](CCC(=O)O)C(=O)O)cc1)CN2 [d-LV, (6R)-leucovorin] |  |  |  |  |  |  |  |  |  |  |  |  | does not display any protective effect | 13.3 | 44 | 1.5 | ineffective | 69 | 0.016 |

Reference: publication PMC11371747, “The role of l-leucovorin uptake and metabolism in the modulation of 5-fluorouracil efficacy and antifolate toxicity” (Frontiers in Pharmacology, 2024)
